Activity calls are given as the source filed them. The rule behind the calls is not given here.

This data set relates to rodent lifetime carcinogenesis bioassay, tumor incidence TD50. The data set can be described thus: carcinogenic potency in animals, long-term in vivo studies, CPDB compilation (AID 1745844).

By TD50 is commonly meant the 50% point of the dose-response relation for the toxic effect studied. `COc1cccc(O)c1O`: the TD50 is 425 mg/kg/day (rat, strain F344/DuCrj, males, in feed, site: forestomach, lesion: squamous-cell papilloma, dosed 51 weeks, study length 51 weeks) and 48.7 mg/kg/day (rat, strain F344/DuCrj, males, in feed, site: stomach, glandular, lesion: adenoma, dosed 51 weeks, study length 51 weeks).

In the case of `CCOc1ccc(NC(C)=O)cc1`, the TD50 runs as follows: (mouse, strain B6C3F1, females, in feed, site: liver, lesion: hemangioma, dosed 96 weeks, study length 104 weeks) 29200 mg/kg/day (inactive); (mouse, strain B6C3F1, females, in feed, site: liver, lesion: hepatocellular carcinoma, dosed 96 weeks, study length 104 weeks) 47700 mg/kg/day (inactive); (mouse, strain B6C3F1, females, in feed, site: liver, lesion: hyperplastic nodule, dosed 96 weeks, study length 104 weeks) 14000 mg/kg/day (inactive); (mouse, strain B6C3F1, females, in feed, site: lung, lesion: adenocarcinoma, dosed 96 weeks, study length 104 weeks) 8830 mg/kg/day (inactive); (mouse, strain B6C3F1, females, in feed, site: lung, lesion: adenoma, dosed 96 weeks, study length 104 weeks) 6890 mg/kg/day (inactive); (mouse, strain B6C3F1, females, in feed, site: urinary bladder, lesion: papilloma, dosed 96 weeks, study length 104 weeks) 37000 mg/kg/day. Further, the TD50 was 37000 mg/kg/day (mouse, strain B6C3F1, females, in feed, site: urinary bladder, lesion: transitional-cell carcinoma, dosed 96 weeks, study length 104 weeks); 1100 mg/kg/day (mouse, strain B6C3F1, males, in feed, site: kidney, lesion: renal-cell adenoma, dosed 96 weeks, study length 104 weeks); 4020 mg/kg/day (mouse, strain B6C3F1, males, in feed, site: kidney, lesion: renal-cell carcinoma, dosed 96 weeks, study length 104 weeks); 17100 mg/kg/day (inactive) (mouse, strain B6C3F1, males, in feed, site: liver, lesion: hepatocellular carcinoma, dosed 96 weeks, study length 104 weeks); 3800 mg/kg/day (inactive) (mouse, strain B6C3F1, males, in feed, site: lung, lesion: adenocarcinoma, dosed 96 weeks, study length 104 weeks); 5280 mg/kg/day (inactive) (mouse, strain B6C3F1, males, in feed, site: lung, lesion: adenoma, dosed 96 weeks, study length 104 weeks). The TD50 (mouse, strain C57BL/6, males, in feed, site: liver, lesion: hyperplastic nodule, dosed 77 weeks, study length 77 weeks) is 12900 mg/kg/day (inactive); the TD50 (rat, strain Sprague-Dawley, females, in feed, site: all sites, lesion: myeloid leukemia, dosed 78 weeks, study length 104 weeks) is 2560 mg/kg/day (inactive); the TD50 (rat, strain Sprague-Dawley, females, in feed, site: any site (literature study), lesion: several types, types named in the paper, dosed 78 weeks, study length 104 weeks) was determined as 1210 mg/kg/day; the TD50 (rat, strain Sprague-Dawley, females, in feed, site: ear duct, lesion: squamous-cell carcinoma, dosed 110 weeks, study length 110 weeks) is 1430 mg/kg/day; the TD50 (rat, strain Sprague-Dawley, females, in feed, site: mammary gland, lesion: adenocarcinoma, dosed 110 weeks, study length 110 weeks) is 1380 mg/kg/day; the TD50 (rat, strain Sprague-Dawley, females, in feed, site: nasal cavity, lesion: adenocarcinoma, dosed 78 weeks, study length 104 weeks) was 7730 mg/kg/day. In addition, the TD50 (rat, strain Sprague-Dawley, females, in feed, site: nasal cavity, lesion: squamous-cell carcinoma, dosed 78 weeks, study length 104 weeks) was 48000 mg/kg/day; the TD50 (rat, strain Sprague-Dawley, females, in feed, site: nasal cavity, lesion: transitional-cell carcinoma, dosed 78 weeks, study length 104 weeks) was 23800 mg/kg/day; the TD50 (rat, strain Sprague-Dawley, females, in feed, site: several sites, sites named in the paper, lesion: several types, types named in the paper, dosed 78 weeks, study length 104 weeks) is 2730 mg/kg/day; the TD50 (rat, strain Sprague-Dawley, females, in feed, site: urinary bladder, lesion: papilloma, dosed 78 weeks, study length 104 weeks) is 23800 mg/kg/day; the TD50 (rat, strain Sprague-Dawley, females, in feed, site: urinary bladder, lesion: transitional-cell carcinoma, dosed 78 weeks, study length 104 weeks) is 11700 mg/kg/day; the TD50 (rat, strain Sprague-Dawley, males, in feed, site: all sites, lesion: myeloid leukemia, dosed 78 weeks, study length 104 weeks) was 2380 mg/kg/day (inactive). For the same compound, the TD50 runs as follows: (rat, strain Sprague-Dawley, males, in feed, site: any site (literature study), lesion: several types, types named in the paper, dosed 78 weeks, study length 104 weeks) 631 mg/kg/day; (rat, strain Sprague-Dawley, males, in feed, site: forestomach, lesion: squamous-cell papilloma, dosed 117 weeks, study length 117 weeks) 2690 mg/kg/day; (rat, strain Sprague-Dawley, males, in feed, site: kidney cortex, lesion: renal-cell tumor, dosed 117 weeks, study length 117 weeks) 1300 mg/kg/day; (rat, strain Sprague-Dawley, males, in feed, site: kidney/pelvis, lesion: one or several types, types not named, dosed 117 weeks, study length 117 weeks) 5470 mg/kg/day; (rat, strain Sprague-Dawley, males, in feed, site: kidney/pelvis, lesion: renal-cell carcinoma, dosed 78 weeks, study length 104 weeks) 38300 mg/kg/day; (rat, strain Sprague-Dawley, males, in feed, site: liver, lesion: hemangioma, dosed 117 weeks, study length 117 weeks) 5470 mg/kg/day. Also, the TD50 is 2380 mg/kg/day (rat, strain Sprague-Dawley, males, in feed, site: nasal cavity, lesion: adenocarcinoma, dosed 78 weeks, study length 104 weeks); 7530 mg/kg/day (rat, strain Sprague-Dawley, males, in feed, site: nasal cavity, lesion: squamous-cell carcinoma, dosed 78 weeks, study length 104 weeks); 4050 mg/kg/day (rat, strain Sprague-Dawley, males, in feed, site: nasal cavity, lesion: transitional-cell carcinoma, dosed 78 weeks, study length 104 weeks); 741 mg/kg/day (rat, strain Sprague-Dawley, males, in feed, site: several sites, sites named in the paper, lesion: several types, types named in the paper, dosed 78 weeks, study length 104 weeks); 1640 mg/kg/day (rat, strain Sprague-Dawley, males, in feed, site: urinary bladder, lesion: one or several types, types not named, dosed 117 weeks, study length 117 weeks); 2710 mg/kg/day (rat, strain Sprague-Dawley, males, in feed, site: urinary bladder, lesion: transitional-cell carcinoma, dosed 78 weeks, study length 104 weeks). For the same compound, the carcinogen call (mouse, strain B6C3F1, males, in feed, site: liver, lesion: hemangioma, dosed 96 weeks, study length 104 weeks) was “negative (inactive)”; the carcinogen call (mouse, strain B6C3F1, males, in feed, site: liver, lesion: hyperplastic nodule, dosed 96 weeks, study length 104 weeks) was “negative (inactive)”; the carcinogen call (mouse, strain C57BL/6, females, in feed, site: liver, lesion: one or several types, types not named, dosed 77 weeks, study length 77 weeks) was “negative (inactive)”; the carcinogen call (rat, strain Wistar, females, in feed, site: urinary tract, lesion: one or several types, types not named, dosed 69 weeks, study length 69 weeks) is “negative (inactive)”.

`Brc1cc(Br)c(-c2c(Br)c(Br)c(Br)c(Br)c2Br)c(Br)c1Br`: the TD50 is, setting by setting: (mouse, strain B6C3F1, females, in feed, site: any site (literature study), lesion: several types, types named in the paper, dosed 78 weeks, study length 78 weeks) 4.9 mg/kg/day; (mouse, strain B6C3F1, females, in feed, site: liver, lesion: hepatocellular carcinoma, dosed 78 weeks, study length 78 weeks) 13.7 mg/kg/day; (mouse, strain B6C3F1, females, in feed, site: liver, lesion: neoplastic nodule, dosed 78 weeks, study length 78 weeks) 4.89 mg/kg/day; (mouse, strain B6C3F1, males, in feed, site: any site (literature study), lesion: several types, types named in the paper, dosed 78 weeks, study length 78 weeks) 2.07 mg/kg/day; (mouse, strain B6C3F1, males, in feed, site: liver, lesion: hepatoblastoma, dosed 78 weeks, study length 78 weeks) 35.4 mg/kg/day; (mouse, strain B6C3F1, males, in feed, site: liver, lesion: hepatocellular carcinoma, dosed 78 weeks, study length 78 weeks) 3.44 mg/kg/day. Also, under “mouse, strain B6C3F1, males, in feed, site: liver, lesion: neoplastic nodule, dosed 78 weeks, study length 78 weeks”, the TD50 is 2.86 mg/kg/day.

On to `CCCCN(N)CCCC`, for which the TD50 (mouse, strain Swiss albino, females, in drinking water, site: forestomach, lesion: several types, types named in the paper, dosed 109 weeks, study length 109 weeks) is 71.5 mg/kg/day; the TD50 (mouse, strain Swiss albino, females, in drinking water, site: forestomach, lesion: squamous-cell carcinoma, dosed 109 weeks, study length 109 weeks) was found to be 152 mg/kg/day; the TD50 (mouse, strain Swiss albino, females, in drinking water, site: forestomach, lesion: squamous-cell papilloma, dosed 109 weeks, study length 109 weeks) was 95.9 mg/kg/day; the TD50 (mouse, strain Swiss albino, females, in drinking water, site: lung, lesion: adenocarcinoma, dosed 109 weeks, study length 109 weeks) is 133 mg/kg/day; the TD50 (mouse, strain Swiss albino, females, in drinking water, site: lung, lesion: adenoma, dosed 109 weeks, study length 109 weeks) is 51.5 mg/kg/day; the TD50 (mouse, strain Swiss albino, females, in drinking water, site: lung, lesion: several types, types named in the paper, dosed 109 weeks, study length 109 weeks) is 55.5 mg/kg/day. In addition, the TD50 (mouse, strain Swiss albino, males, in drinking water, site: forestomach, lesion: several types, types named in the paper, dosed 109 weeks, study length 109 weeks) was 84.2 mg/kg/day; the TD50 (mouse, strain Swiss albino, males, in drinking water, site: forestomach, lesion: squamous-cell carcinoma, dosed 109 weeks, study length 109 weeks) came to 317 mg/kg/day; the TD50 (mouse, strain Swiss albino, males, in drinking water, site: forestomach, lesion: squamous-cell papilloma, dosed 109 weeks, study length 109 weeks) came to 109 mg/kg/day; the TD50 (mouse, strain Swiss albino, males, in drinking water, site: liver, lesion: hepatoma, benign, dosed 109 weeks, study length 109 weeks) came out at 189 mg/kg/day; the TD50 (mouse, strain Swiss albino, males, in drinking water, site: liver, lesion: several types, types named in the paper, dosed 109 weeks, study length 109 weeks) was 105 mg/kg/day; the TD50 (mouse, strain Swiss albino, males, in drinking water, site: lung, lesion: adenocarcinoma, dosed 109 weeks, study length 109 weeks) worked out at 82.3 mg/kg/day. Moreover, the TD50 (mouse, strain Swiss albino, males, in drinking water, site: lung, lesion: adenoma, dosed 109 weeks, study length 109 weeks) is 44.9 mg/kg/day and the TD50 (mouse, strain Swiss albino, males, in drinking water, site: lung, lesion: several types, types named in the paper, dosed 109 weeks, study length 109 weeks) was 38.1 mg/kg/day. Also, the carcinogen call (mouse, strain Swiss albino, females, in drinking water, site: liver, lesion: angioma, dosed 109 weeks, study length 109 weeks) is “negative (inactive)”.

Take `Cn1c(=O)c2[nH]cnc2n(C)c1=O`: for the setting “mouse, strain B6C3F1, females, by gavage, site: all sites, lesion: histiocytic sarcoma, dosed 103 weeks, study length 104 weeks”, the TD50 is 20.5 mg/kg/day (inactive). For the same compound, the carcinogen call was “negative (inactive)” (mouse, strain B6C3F1, males, by gavage, site: any site (literature study), lesion: several types, types named in the paper, dosed 103 weeks, study length 104 weeks); “negative (inactive)” (rat, strain Fischer 344, females, by gavage, site: any site (literature study), lesion: several types, types named in the paper, dosed 104 weeks, study length 104 weeks); “negative (inactive)” (rat, strain Fischer 344, males, by gavage, site: any site (literature study), lesion: several types, types named in the paper, dosed 104 weeks, study length 104 weeks).

With `CN(N=O)c1ccc(N=O)cc1`, the TD50 is, setting by setting: (rat, strain CB, males, i.p., site: liver, lesion: hepatoma, dosed 26 weeks, study length 86 weeks) 1.5 mg/kg/day (inactive); (rat, strain CB, males, i.p., site: peritoneal cavity, lesion: several types, types named in the paper, dosed 26 weeks, study length 86 weeks) 1.3 mg/kg/day.

For the origin of these results see PubChem BioAssay AID1745844 (Carcinogenic Potency Database (CPDB), 2022).
